The values below come from patent US20240209014A1, “NOVEL SPINOSYN PRODRUGS” (Acies Bio d.o.o., priority 2021, published 2024).

Values after ≈ are worked out from the molar mass of the structure shown. Read-outs that look alike come from different tables or passages of the source.

Data set [1] in a line: Stability of J1Aa and J7a at different pH values (LC-MS). Type of data set: physicochemical. The method, then: Stability of compounds J1Aa and J7a was evaluated at different pH values. Differential stability/conversion to the active ingredient is expected to result in condition-specific activation and thereby to higher specificity towards target pests.
Stock solutions of the compounds were prepared at concentration of 0.1 mol/L. 10 μL of the stock solutions were transferred to 0.75 ml of the buffer solutions with pH values of 4, 5, 9 and 11. […] After specified times samples were analyzed using LC-MS. The compounds J1Aa and J7a and the active compound spinosyn A were quantified. It is seen that the two compounds are converted to the active form preferably in alkaline conditions.

Data set [2] deals with honey bees (Apis melifera carnica, Pollman 1879). The data set is described as follows: Single dose acute oral toxicity test on adult worker honey bees. Type of data set: in vivo. The method, then:
Toxicity of the compounds of this invention towards honey bees (Apis melifera carnica, Pollman 1879) was assessed in comparison with commercially available samples of spinosad (LGC (Dr. Ehrenstorfer); Product code: DRE-C16972830) and the naturally produced compound butenyl spinosyn alpha 1. Solutions of spinosyn compounds were prepared in 100 mM ammonium acetate, pH=5, and later diluted in 50% (500 g/L) sucrose solution in water to final concentrations. Two final concentrations were used for each compound, 7.76 μmol/L and 15.53 μmol/L.
Single dose acute oral toxicity tests were conducted on adult worker bees according to previously described standard methods (Medrzycki at el., (2013)). Each compound and condition were tested in two parallels. Briefly, each parallel experiment consisted of 5 cages with 20 honey bees per cage. […] After uptake of the solutions honey bees were supplied with standard 50% sucrose solution and observed at 24 h and 48 h and the number of dead and live bees was estimated.
Ammonium acetate solution with pH 5 was used as the negative control.

The test system of data set [3] is larvae of Ostrinia nubilialis (development stage L1). The data set is described as follows: Insecticide efficacy, corn leaf dip, Henderson-Tilton method. Type of data set: in vivo. The method, then: Insecticide activities of the compounds of this invention were assessed in comparison with commercially available samples of spinosad (LGC (Dr. Ehrenstorfer); Product code: DRE-C16972830) and spinetoram (LGC (Dr. Ehrenstorfer); Product code: DRE-C16972770). Solutions of spinosyn compounds were prepared by adding 0.05% Tween 80, lowering pH to 5.95 and sonicating. Two concentrations of each compound were used, 0.1 μg/ml and 0.3 μg/mL, with each condition tested in four parallels.
Freshly collected corn leaves were dipped into the prepared solutions. After dipping leaves were left to dry at room temperature for 1 hour. Each dry leaf was then infested with 4 larvae of Ostrinia nubilialis (development stage L1), and the experimental device was incubated at 21° C.-23° C. for 24 h in order to optimize insect development. At three timings post infestation (1 day, 3 days and 6 days), the insecticide efficacy is evaluated from the number of living larvae using the Henderson-Tilton method. Untreated control was integrated for normalization and validation of larvae health.

The nature of data set [4]: Kinetic solubility assay. The following applies: dose conc 200 μM, 25±2° C. It is filed as physicochemical. The method, then: Solubility of the compounds of the invention was assessed using kinetic solubility assay and compared to solubility of butenyl spinosyn. Stock solutions of spinosyn compounds were prepared in DMSO at mM concentration). 10 uL of the stock solutions were added into 490 of in K.S. 5.4 buffer of pH 5.4 (80 mM phosphoric acid, acetic acid, boric acid buffer, adjusted the pH to pH 5.4 with 1 N HCl and 1N NaOH) or K.S. 7.4 buffer with pH of 7.4 (80 mM phosphoric acid, acetic acid, boric acid buffer, adjusted the pH to pH 7.4 with 1 N HCl and 1N NaOH). The solutions were incubated with shaking at room […] temperature (25±2° C.) for 24 hours. 200 uL of each solution were then transferred into a new MultiScreen filter plate (Membrane of polycarbonate) and filtered by millipore vacuum manifold, and the filtrate was collected. The concentrtions of tested compounds in the filtered samples were analyzed by HPLC analysis calibrated by a standard curve generated by injection of 3 standard solutions of the relevant compound with concentrations of 1, 20, 200 μM.

Where [5] appears, read: single oral dose 0.078 nmol/bee, 24 h after application.
Where [6] appears, read: single oral dose 0.078 nmol/bee, 48 h after application.
[7] abbreviates: single oral dose 0.155 nmol/bee, 24 h after application.
Where [8] appears, read: single oral dose 0.155 nmol/bee, 48 h after application.

Turning to `CC[C@H]1CCC[C@H](OC2CCC([N+](C)(C)COC(=O)OC(C)C)C(C)O2)[C@@H](C)C(=O)C2=C[C@@H]3[C@@H](C=C[C@@H]4C[C@@H](OC5OC(C)C(OC)C(OC)C5OC)C[C@@H]34)[C@@H]2CC(=O)O1` (some centres unmarked) [Compound J7a], the “Compound (J1Aa/J7a) Area % remaining” value in data set [1] (buffer pH 4, 0.16 h) was found to be 92.1%; in data set [1] (buffer pH 4, 6 h), 91.6%; in data set [1] (buffer pH 4, 12 h), 91.3%; in data set [1] (buffer pH 4, 24 h), 90.7%; in data set [1] (buffer pH 5, 0.16 h), 91.8%; in data set [1] (buffer pH 5, 6 h), 90.9%. In addition, the “Compound (J1Aa/J7a) Area % remaining” value in data set [1] (buffer pH 5, 12 h) is recorded as 90.3%; in data set [1] (buffer pH 5, 24 h), 89.0%; in data set [1] (buffer pH 9, 0.16 h), 44.4%; in data set [1] (buffer pH 9, 6 h), 0.0%; in data set [1] (buffer pH 11, 0.16 h), 0.1%. The “SPN Area % (active spinosyn A released)” value in data set [1] (buffer pH 4, 0.16 h) worked out at 7.9%; in data set [1] (buffer pH 4, 6 h) it was 8.4%; in data set [1] (buffer pH 4, 12 h) it was 8.7%; in data set [1] (buffer pH 4, 24 h), 9.3%; in data set [1] (buffer pH 5, 0.16 h), 8.2%; in data set [1] (buffer pH 5, 6 h), 9.1%. The “SPN Area % (active spinosyn A released)” value in data set [1] (buffer pH 5, 12 h) was 9.7%; in data set [1] (buffer pH 5, 24 h), 11.0%; in data set [1] (buffer pH 9, 0.16 h) it was 55.6%; in data set [1] (buffer pH 9, 6 h) it was 100.0%; in data set [1] (buffer pH 11, 0.16 h), 99.9%. Further, the “% of surviving honey bees” value turned out to be 96% in data set [2] (setting [5]), 88% in data set [2] (setting [6]), 97% in data set [2] (setting [7]) and 68% in data set [2] (setting [8]).

“spinetoram [Spinoteram, reference compound]”: the “% Efficacy” value in data set [3] (dose 0.1 μg a.i./ml, 1 day post infestation) was found to be 27%; in data set [3] (dose 0.1 μg a.i./ml, 3 days post infestation), 60%; in data set [3] (dose 0.1 μg a.i./ml, 6 days post infestation), 85%; in data set [3] (dose 0.3 μg a.i./ml, 1 day post infestation) it was 31%; in data set [3] (dose 0.3 μg a.i./ml, 3 days post infestation), 86%; in data set [3] (dose 0.3 μg a.i./ml, 6 days post infestation), 97%.

In the case of `CC/C=C/[C@H]1CCC[C@H](OC2CCC(N(C)C)C(C)O2)[C@@H](C)C(=O)C2=C[C@@H]3[C@@H](C=C[C@@H]4C[C@@H](OC5OC(C)C(OC)C(OC)C5OC)C[C@@H]34)[C@@H]2CC(=O)O1` (stereo partly drawn) [butenyl spinosyn, Butenyl spinosyn α1, reference compound], in data set [2] (acute oral toxicity test), the “toxicity to honey bees compared to corresponding derivatives (in words)” value is reported as “higher toxicity to honey bees”. Moreover, the “% of surviving honey bees” value in data set [2] (setting [5]) amounted to 73%; in data set [2] (setting [6]) it was 53%; in data set [2] (setting [7]), 42%; in data set [2] (setting [8]) it was 18%. The solubility (kinetic) at 24 h in data set [4] (K.S. 5.4 buffer, read-out: Kinetic Solubility pH = 5.4) came to 183.17 µM (≈ 139 µg/mL); in data set [4] (K.S. 7.4 buffer, read-out: Kinetic Solubility pH = 7.4), 3.52 µM (≈ 2.67 µg/mL).

Consider `CC[C@H]1CCC[C@H](OC2CCC([N+](C)(C)COC(=O)C(C)(C)C)C(C)O2)[C@@H](C)C(=O)C2=C[C@@H]3[C@@H](C=C[C@@H]4C[C@@H](OC5OC(C)C(OC)C(OC)C5OC)C[C@@H]34)[C@@H]2CC(=O)O1` (some centres unmarked) [Compound J1Aa], for which the “Compound (J1Aa/J7a) Area % remaining” value in data set [1] (buffer pH 4, 0.16 h) was 94.2%; in data set [1] (buffer pH 4, 6 h) it was 92.9%; in data set [1] (buffer pH 4, 12 h) it was 93.8%; in data set [1] (buffer pH 4, 24 h), 93.5%; in data set [1] (buffer pH 5, 0.16 h), 94.1%; in data set [1] (buffer pH 5, 6 h), 91.0%. For the same molecule, the “Compound (J1Aa/J7a) Area % remaining” value in data set [1] (buffer pH 5, 12 h) was found to be 92.0%; in data set [1] (buffer pH 5, 24 h), 90.4%; in data set [1] (buffer pH 9, 0.16 h), 33.1%; in data set [1] (buffer pH 9, 6 h) it was 0.0%; in data set [1] (buffer pH 11, 0.16 h), 0.0%. Further, the “SPN Area % (active spinosyn A released)” value in data set [1] (buffer pH 4, 0.16 h) is 5.8%; in data set [1] (buffer pH 4, 6 h) it was 7.1%; in data set [1] (buffer pH 4, 12 h) it was 6.2%; in data set [1] (buffer pH 4, 24 h), 6.5%; in data set [1] (buffer pH 5, 0.16 h), 5.9%; in data set [1] (buffer pH 5, 6 h), 9.0%. Moreover, the “SPN Area % (active spinosyn A released)” value is 8.0% in data set [1] (buffer pH 5, 12 h); 9.6% in data set [1] (buffer pH 5, 24 h); 66.9% in data set [1] (buffer pH 9, 0.16 h); 100.0% in data set [1] (buffer pH 9, 6 h); 100.0% in data set [1] (buffer pH 11, 0.16 h). Moreover, the “% of surviving honey bees” value in data set [2] (setting [5]) was determined as 99%; in data set [2] (setting [6]) it was 82%; in data set [2] (setting [7]) it was 91%; in data set [2] (setting [8]), 42%.

The term solubility (kinetic) denotes the concentration staying in solution when a stock, usually in DMSO, is diluted into the medium.
